Results from PubChem BioAssay AID608 (Sanford-Burnham Center for Chemical Genomics, 2007).
Active and inactive are the calls of the source. No rule for the calls is given here.

biological target: Peptidyl-prolyl cis-trans isomerase FKBP1A (Homo sapiens) (UniProt P62942); assay: FKBP12 binders, biophysical, NMR detection (AID 608); settings: NMR binding, purified FKBP12
Sequence (P62942 whole entry, looked up): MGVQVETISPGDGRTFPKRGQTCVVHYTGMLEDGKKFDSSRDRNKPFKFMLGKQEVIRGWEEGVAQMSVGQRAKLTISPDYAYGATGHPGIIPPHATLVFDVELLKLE

| SMILES | Kd |
| --- | --- |
| COc1ccc(-c2c(OC)c3c(OC)c4c(cc3oc2=O)OC(C)(C)C=C4)cc1 | > 4 mM (inactive) |
| CC1=C2[C@H]3OC(=O)[C@@H](C)[C@@H]3CC[C@@]2(C)C=CC1=O | > 4 mM (inactive) |
| [O-][n+]1c2ccccc2[n+]([O-])c2cc(O)ccc21 | > 4 mM (inactive) |
| CC1=CC(=O)CC(C)(C)C1(O)/C=C/C(C)=C\C(=O)O (stereo not given) | > 4 mM (inactive) |
| CC(C)(C)CC(=O)NNC(=O)c1cnccn1 | > 4 mM (inactive) |
| Cc1cccc(-c2nnc(-c3ccc(N)cc3)o2)c1 | > 4 mM (inactive) |
| O=C(O)CNc1ncnc2nc[nH]c12 | > 4 mM (inactive) |
| NC(=O)c1ccc(-c2csnn2)cc1 | > 4 mM (inactive) |
| OCCCc1nc2ccccc2[nH]1 | > 4 mM (inactive) |
| Cc1c(CO)cnn1-c1ccc(F)cc1 | > 4 mM (inactive) |
| Cc1ccc(/C=C/C(=O)O)cc1S(=O)(=O)NCCO | > 4 mM (inactive) |
| O=C(O)[C@H](O)[C@@](O)(Cc1ccc(O)cc1)C(=O)O | > 4 mM (inactive) |
| C[n+]1ccc(C(=O)[O-])cc1 | > 4 mM (inactive) |
| CC(=O)OCC(OC(C)=O)C(OC(C)=O)C(OC(C)=O)C(OC(C)=O)C(COC(C)=O)OC(C)=O (stereo not given) | > 4 mM (inactive) |
| O=C1NC(=Nc2ccccc2Cl)SC1(CO)CO | > 4 mM (inactive) |
| O=C(COc1ccccc1O)NCCO | > 4 mM (inactive) |
| Cc1sc2nc[nH]c(=S)c2c1C | > 4 mM (inactive) |
| Nc1cc(F)cc(F)c1 | > 4 mM (inactive) |
| CN(C)C(=O)N1CCN(C(=O)c2ccco2)CC1 | > 4 mM (inactive) |
| c1cnc(N2CCNCC2)nc1 | > 4 mM (inactive) |
| CC(=O)NC12CC3CC(CC(O)(C3)C1)C2 | > 4 mM (inactive) |
| NCC(O)c1ccc(O)cc1 (stereo not given) | > 4 mM (inactive) |
| COc1cccc(-c2nn(-c3ccccc3)cc2CO)c1 | > 4 mM (inactive) |

| SMILES | Kd |
| --- | --- |
| CCn1nnc(NC(=O)c2ccccc2Br)n1 | > 4 mM (inactive) |
| COc1ccc(-c2coc3c(OC)c(OC)cc(O)c3c2=O)cc1 | > 4 mM (inactive) |
| OCCNC(=S)Nc1ccccc1 | > 4 mM (inactive) |
| CN1CCC(N2CCN(C)CC2)CC1 | > 4 mM (inactive) |
| COc1ccc2c(c1)OC[C@@H](Cc1ccc(OC)c(OC)c1)[C@@H]2O | > 4 mM (inactive) |
| Oc1ccc(-n2ccnc2)cc1 | > 4 mM (inactive) |
| O=C(O)C1CCCN1Cc1c[nH]c2ccccc12 (stereo not given) | > 4 mM (inactive) |
| CC(C(N)=O)N1C(=O)c2ccccc2C1=O (stereo not given) | > 4 mM (inactive) |
| O=C(OCc1c(Cl)cccc1Cl)c1cnccn1 | > 4 mM (inactive) |
| CCCCn1c(S(=O)(=O)O)nc2ccccc21 | > 4 mM (inactive) |
| NC(=NCCC[C@H](N)C(=O)O)NC(CCC(=O)O)C(=O)O (stereo not given in full) | > 4 mM (inactive) |
| Nc1ccc(C2SCCS2)cc1 | > 4 mM (inactive) |
| C=C1C(N)CC2CC1C2(C)C (stereo not given) | > 4 mM (inactive) |
| COc1cc([C@@H]2c3cc4c(cc3[C@H](OC(C)=O)[C@H]3COC(=O)[C@@H]23)OCO4)cc(OC)c1OC | > 4 mM (inactive) |
| COc1ccc(C2=CC(=O)C=CC2=O)cc1 | > 4 mM (inactive) |
| O=C(O)c1cccnc1N1CCCC1 | > 4 mM (inactive) |
| Cc1sc2nc(-c3ccco3)oc(=O)c2c1C | > 4 mM (inactive) |
| c1ccc(SCc2nc(-c3cccnc3)no2)cc1 | > 4 mM (inactive) |
| Cc1ccc(C(O)c2nccn2C)o1 (stereo not given) | > 4 mM (inactive) |
| CC(C)NS(=O)(=O)c1ccc(N)cc1 | > 4 mM (inactive) |
| Cc1occc1C(=O)Nc1ccc2c(c1)OCO2 | > 4 mM (inactive) |
| COc1cnn(-c2ccccc2)c(=O)c1N(C)C | > 4 mM (inactive) |
| Cc1nc(SCC#N)c2c(C)c(C)sc2n1 | > 4 mM (inactive) |

| SMILES | Kd |
| --- | --- |
| O=c1cc(-c2ccc(O)cc2)oc2cc(O)cc(O)c12 | > 4 mM (inactive) |
| COC1C=CC23c4cc5c(cc4CN(CC2O)[C@@H]3C1)OCO5 (stereo not given in full) | > 4 mM (inactive) |
| NC(CC(=O)O)C(=O)Nc1ccc(Cl)cc1 (stereo not given) | > 4 mM (inactive) |
| O=C(Nc1cnc2ccccn2c1=O)c1ccc(F)cc1 | > 4 mM (inactive) |
| CN(C)c1n[nH]c(=O)[nH]c1=O | > 4 mM (inactive) |
| Oc1ccc(C(=S)N2CCCCC2)cc1Cl | > 4 mM (inactive) |
| COC(=O)CC1NC2CCCCC2NC1=O (stereo not given) | > 4 mM (inactive) |
| CCc1cc2c(SCC(=O)O)ncnc2s1 | > 4 mM (inactive) |
| O=S1(=O)C=CC(N2CCCCC2)C1 (stereo not given) | > 4 mM (inactive) |
| c1coc(CNc2ncnc3nc[nH]c23)c1 | > 4 mM (inactive) |
| O=C(NCc1ccccc1F)c1cccs1 | > 4 mM (inactive) |
| CCCCCc1c2c(cc(O)c1C(=O)O)OC(=O)c1c(cc(OC)cc1C(=O)CCCC)O2 | > 4 mM (inactive) |
| COc1ccc2c(=O)c(OC)c(-c3ccccc3)oc2c1 | > 4 mM (inactive) |
| O=C(O)c1c[nH]c2ccccc12 | > 4 mM (inactive) |
| O=C(Nc1ccon1)c1sc2cc(F)ccc2c1Cl | > 4 mM (inactive) |
| Cn1c2ccccc2n2c(=S)[nH]nc12 | > 4 mM (inactive) |
| C/C=C/C=N/NC(=O)c1ccc(=O)n(C)c1 | > 4 mM (inactive) |
| O=C(O)c1cnc2n(c1=O)CCS2 | > 4 mM (inactive) |
| Cc1c(C(=O)Nc2ccncc2)oc2c1C(=O)CC(C)(C)C2 | > 4 mM (inactive) |
| O=c1[nH]oc2ccccc12 | > 4 mM (inactive) |
| CCCCCC1C(=O)CCC1CC(=O)OC (stereo not given) | > 4 mM (inactive) |
| Cc1nnc(C)n1/N=C/c1cccs1 | > 4 mM (inactive) |
| Cc1csc2nc(N)nn12 | > 4 mM (inactive) |

| SMILES | Kd |
| --- | --- |
| O=C(O)C1CSC(c2ccc(Cl)cc2)N1 (stereo not given) | > 4 mM (inactive) |
| Nc1ccc(S(=O)(=O)Nc2nccs2)cc1 | > 4 mM (inactive) |
| O=C(Nc1ccc(N2CCOCC2)cc1)c1cnsn1 | > 4 mM (inactive) |
| Cc1cc(C)c(C(N)=O)c(=S)[nH]1 | > 4 mM (inactive) |
| COc1cc(OC)cc(-c2nc(N)n[nH]2)c1 | > 4 mM (inactive) |
| O=C(O)CSCc1c(F)cccc1Cl | > 4 mM (inactive) |
| COc1cc(C(=S)N2CCOCC2)ccc1O | > 4 mM (inactive) |
| CC(=O)OCC(=O)[C@@]1(O)CCC2C3CC[C@@H]4C[C@H](O)CC[C@]4(C)C3C(=O)C[C@@]21C (stereo not given in full) | > 4 mM (inactive) |
| O=C(Cc1c(F)cccc1Cl)Nc1ccon1 | > 4 mM (inactive) |
| CC(=O)Nc1ccc(S(=O)(=O)Nc2cc(C)on2)cc1 | > 4 mM (inactive) |
| Nc1nc2[nH]c(=O)c(=O)[nH]c2c(=O)[nH]1 | > 4 mM (inactive) |
| Nc1c(F)c(F)nc(F)c1F | > 4 mM (inactive) |
| Nc1ncnc2c1ncn2C1O[C@H](COP(=O)(O)O)[C@@H](O)[C@H]1O (stereo not given in full) | > 4 mM (inactive) |
| Cn1nc(C(=O)Nc2cccnc2)cc1Cl | > 4 mM (inactive) |
| C/C=C(/C)C(=O)O[C@@H]1[C@H](OC(C)=O)[C@@]2(CO)C(CC1(C)C)C1=CCC3[C@@]4(C)CC[C@H](O[C@@H]5O[C@H](C(=O)O)[C@@H](O[C@@H]6O[C@H](CO)[C@@H](O)[C@H](O)[C@H]6O)[C@H](O)[C@H]5O[C@@H]5O[C@H](CO)[C@@H](O)[C@H](O)[C@H]5O)[C@](C)(CO)C4CC[C@@]3(C)[C@]1(C)C[C@H]2O (stereo not given in full) | > 4 mM (inactive) |
| Cc1cc(C)n(-c2ccc(N)cc2)n1 | > 4 mM (inactive) |
| O=S1(=O)CCC(Nc2ccccc2)C1 (stereo not given) | > 4 mM (inactive) |
| O=C(O)C1CSC(c2ccco2)N1 (stereo not given) | > 4 mM (inactive) |
| CC[C@@]1(O)C[C@H](O[C@H]2C[C@H](N(C)C)[C@H](O)[C@H](C)O2)c2c(cc3c(c2O)C(=O)c2c(O)cccc2C3=O)[C@H]1C(=O)OC | > 4 mM (inactive) |
| Cc1cc2c(N)cccc2nn1 | > 4 mM (inactive) |
| CC(C)NC(=S)N1CCN(S(C)(=O)=O)CC1 | > 4 mM (inactive) |
| CC(=O)n1c(N)nc2ccccc21 | > 4 mM (inactive) |
| CC(=O)c1cc(CN2C(=O)c3ccccc3C2=O)cs1 | > 4 mM (inactive) |

| SMILES | Kd |
| --- | --- |
| Cc1ccc(-c2nn3c(C)nnc3s2)cc1N | > 4 mM (inactive) |
| CC(CCC(=O)O)[C@H]1CCC2C3CC[C@@H]4CCCC[C@]4(C)C3CC[C@@]21C (stereo not given in full) | > 4 mM (inactive) |
| CC1=CC2C(C(C)C)CCC(C)(O)C2CC1 (stereo not given) | > 4 mM (inactive) |
| NCCCCNCCCN | > 4 mM (inactive) |
| Cc1cc(NC(=O)c2ccccc2C(=O)O)no1 | > 4 mM (inactive) |
| O=S(=O)(Nc1ccc(Cl)c(Cl)c1)N1CCOCC1 | inactive |
| O=C(COc1cc(Cl)c(Cl)cc1Cl)N1CCOCC1 | inactive |
| O=C(O)c1ccc(CN2CCCCC2)o1 | > 4 mM (inactive) |
| c1ccc(CSc2ncccn2)cc1 | > 4 mM (inactive) |
| CS(=O)(=O)c1ccccc1C(=O)Nc1nccs1 | > 4 mM (inactive) |
| O=S(=O)(Nc1ccc2c(c1)OCCO2)c1cccs1 | > 4 mM (inactive) |
| NC(=O)COc1ccccc1O | > 4 mM (inactive) |
| CC(CO)NC(=O)C1C=C2c3cccc4[nH]cc(c34)C[C@H]2N(C)C1 (stereo not given in full) | > 4 mM (inactive) |
| COc1ccc(Cl)cc1NC(=O)C(N)=O | > 4 mM (inactive) |
| Cc1nn(CC(=O)N2CCCCC2)c(=O)c2ccccc12 | > 4 mM (inactive) |
| Oc1ccc(C(=S)N2CCOCC2)cc1 | > 4 mM (inactive) |
| COc1ccc(C)cc1S(=O)(=O)N1CCCCC1 | > 4 mM (inactive) |
| NC(=O)CSCc1ccc(Br)cc1 | > 4 mM (inactive) |
| COc1ccc(-c2cc(=O)c3ccccc3o2)cc1 | > 4 mM (inactive) |
| OCc1ccc(-c2cccs2)s1 | > 4 mM (inactive) |
| COc1ccc(-c2cn[nH]c2N)c(OC)c1 | > 4 mM (inactive) |
| O=C(OC[C@H]1O[C@H](OC(=O)c2cc(O)c(O)c(OC(=O)c3cc(O)c(O)c(O)c3)c2)[C@H](OC(=O)c2cc(O)c(O)c(OC(=O)c3cc(O)c(O)c(O)c3)c2)[C@@H](OC(=O)c2cc(O)c(O)c(OC(=O)c3cc(O)c(O)c(O)c3)c2)[C@@H]1OC(=O)c1cc(O)c(O)c(OC(=O)c2cc(O)c(O)c(O)c2)c1)c1cc(O)c(O)c(OC(=O)c2cc(O)c(O)c(O)c2)c1 | > 4 mM (inactive) |
| Cc1occc(=O)c1O | > 4 mM (inactive) |
